Laboratory results published in the supplement of paper PMC10307832.

Key:
Test in all cases: relative viability (nuclei count vs DMSO), 5 days (fraction); higher = more cells survive
[1] = compound: COc1cc([C@@H]2c3cc4c(cc3[C@@H](O[C@@H]3O[C@@H]5CO[C@@H](C)O[C@H]5[C@H](O)[C@H]3O)[C@H]3COC(=O)[C@H]23)OCO4)cc(OC)c1O [Etoposide] + Nc1nc2[nH]cc(CCc3ccc(C(=O)N[C@@H](CCC(=O)O)C(=O)O)cc3)c2c(=O)[nH]1 [Pemetrexed] (partner 0.2 µM)
Procedure, shortened: (§1)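 Nuclei were stained with Hoechst during a one-step fixation (final 0.05% Triton X-100, 1% formaldehyde, 1 ug/ml Hoechst) carried out 5 days after dosing, then counted on 4× images. The cells, lung cancer lines in 1536-well plates, had been dosed by pin tool the day after seeding with one drug alone or a fixed anchor-drug dose plus five library-drug doses (not always all listed) in √10 steps. Relative viability is the nuclei count in treated wells divided by that in vehicle wells, and each value is the median of duplicate plates.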

[2] = compound: CC1=C(N=C(N=C1N)[C@H](CC(=O)N)NC[C@@H](C(=O)N)N)C(=O)N[C@@H]([C@H](C2=CN=CN2)OC3C(C(C(C(O3)CO)O)O)OC4C(C(C(C(O4)CO)O)OC(=O)N)O)C(=O)N[C@H](C)[C@H]([C@H](C)C(=O)N[C@@H]([C@@H](C)O)C(=O)NCCC5=NC(=CS5)C6=NC(=CS6)C(=O)NCCC[S+](C)C)O [Bleomycin] + COc1cccc2cc(-c3nc([C@H]4CC[C@H](C(=O)O)CC4)n4ncnc(N)c34)[nH]c12 [OSI-027] (partner 0.5 µM); conditions: main component drawn
Procedure, shortened: as §1

[3] = compound: COc1cc([C@@H]2c3cc4c(cc3[C@@H](O[C@@H]3O[C@@H]5CO[C@@H](C)O[C@H]5[C@H](O)[C@H]3O)[C@H]3COC(=O)[C@H]23)OCO4)cc(OC)c1O [Etoposide]
Procedure, shortened: (§2)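 Five library-drug doses spaced by √10 were pinned onto vehicle-anchored 1536-well plates of lung cancer cell lines that had been kept overnight at 37 °C. Cells went 5 days without medium change, then were fixed, permeabilised and Hoechst-stained together, imaged at 4× and counted by MetaXpress. Viability is the ratio of treated-well to vehicle-well nuclei, taken as a median over plates. Plates required control CV below 25% and at least one doubling.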

[4] = compound: CC1=C(N=C(N=C1N)[C@H](CC(=O)N)NC[C@@H](C(=O)N)N)C(=O)N[C@@H]([C@H](C2=CN=CN2)OC3C(C(C(C(O3)CO)O)O)OC4C(C(C(C(O4)CO)O)OC(=O)N)O)C(=O)N[C@H](C)[C@H]([C@H](C)C(=O)N[C@@H]([C@@H](C)O)C(=O)NCCC5=NC(=CS5)C6=NC(=CS6)C(=O)NCCC[S+](C)C)O [Bleomycin]; conditions: main component drawn
Procedure, shortened: as §2

NCI-H1975
relative viability ([1]; first compound 0.01 µM): 0.285
relative viability ([1]; first compound 0.03162 µM): 0.303
relative viability ([1]; first compound 0.1 µM): 0.31
relative viability ([1]; first compound 0.3162 µM): 0.268
relative viability ([1]; first compound 1 µM): 0.223
relative viability ([2]; first compound 0.01 µM): 0.566
relative viability ([2]; first compound 0.03162 µM): 0.638
relative viability ([2]; first compound 0.1 µM): 0.435
relative viability ([2]; first compound 0.3162 µM): 0.153
relative viability ([2]; first compound 1 µM): 0.132
relative viability ([3]; 0.01 µM): 0.842
relative viability ([3]; 0.03162 µM): 1.07
relative viability ([3]; 0.1 µM): 0.817
relative viability ([3]; 0.3162 µM): 0.809
relative viability ([3]; 1 µM): 0.402
relative viability ([4]; 0.01 µM): 0.746
relative viability ([4]; 0.03162 µM): 0.714
relative viability ([4]; 0.1 µM): 0.589
relative viability ([4]; 0.3162 µM): 0.289
relative viability ([4]; 1 µM): 0.226

NCI-H1993
relative viability ([1]; first compound 0.03162 µM): 0.662
relative viability ([1]; first compound 0.1 µM): 0.502
relative viability ([1]; first compound 0.3162 µM): 0.543
relative viability ([1]; first compound 1 µM): 0.399
relative viability ([2]; first compound 0.01 µM): 0.541
relative viability ([2]; first compound 0.03162 µM): 0.483
relative viability ([2]; first compound 0.1 µM): 0.513
relative viability ([2]; first compound 0.3162 µM): 0.535
relative viability ([2]; first compound 1 µM): 0.422
relative viability ([3]; 0.01 µM): 0.727
relative viability ([3]; 0.03162 µM): 1.1
relative viability ([3]; 0.1 µM): 0.636
relative viability ([3]; 0.3162 µM): 0.783
relative viability ([3]; 1 µM): 0.501
relative viability ([4]; 0.01 µM): 0.853
relative viability ([4]; 0.03162 µM): 0.899
relative viability ([4]; 0.1 µM): 0.876
relative viability ([4]; 0.3162 µM): 0.601
relative viability ([4]; 1 µM): 0.564

NCI-H2009
relative viability ([1]; first compound 0.01 µM): 0.976
relative viability ([1]; first compound 0.03162 µM): 0.957
relative viability ([1]; first compound 0.1 µM): 1.12
relative viability ([1]; first compound 0.3162 µM): 0.703
relative viability ([1]; first compound 1 µM): 0.57
relative viability ([2]; first compound 0.01 µM): 0.606
relative viability ([2]; first compound 0.03162 µM): 0.609
relative viability ([2]; first compound 0.1 µM): 0.637
relative viability ([2]; first compound 0.3162 µM): 0.501
relative viability ([2]; first compound 1 µM): 0.41
relative viability ([3]; 0.01 µM): 1.02
relative viability ([3]; 0.03162 µM): 1.03
relative viability ([3]; 0.1 µM): 0.938
relative viability ([3]; 0.3162 µM): 0.765
relative viability ([3]; 1 µM): 0.42
relative viability ([4]; 0.01 µM): 0.953
relative viability ([4]; 0.03162 µM): 1.02
relative viability ([4]; 0.1 µM): 1.01
relative viability ([4]; 0.3162 µM): 0.659
relative viability ([4]; 1 µM): 0.566

NCI-H2023
relative viability ([1]; first compound 0.01 µM): 0.241
relative viability ([1]; first compound 0.03162 µM): 0.272
relative viability ([1]; first compound 0.1 µM): 0.182
relative viability ([1]; first compound 0.3162 µM): 0.156
relative viability ([1]; first compound 1 µM): 0.143
relative viability ([2]; first compound 0.01 µM): 0.297
relative viability ([2]; first compound 0.03162 µM): 0.328
relative viability ([2]; first compound 0.1 µM): 0.284
relative viability ([2]; first compound 0.3162 µM): 0.183
relative viability ([2]; first compound 1 µM): 0.111
relative viability ([3]; 0.01 µM): 0.868
relative viability ([3]; 0.03162 µM): 1.02
relative viability ([3]; 0.1 µM): 0.599
relative viability ([3]; 0.3162 µM): 0.465
relative viability ([3]; 1 µM): 0.148
relative viability ([4]; 0.01 µM): 0.698
relative viability ([4]; 0.03162 µM): 0.68
relative viability ([4]; 0.1 µM): 0.517
relative viability ([4]; 0.3162 µM): 0.21
relative viability ([4]; 1 µM): 0.142

NCI-H2085
relative viability ([1]; first compound 0.01 µM): 0.769
relative viability ([1]; first compound 0.03162 µM): 0.95
relative viability ([1]; first compound 0.1 µM): 0.803
relative viability ([1]; first compound 0.3162 µM): 0.907
relative viability ([1]; first compound 1 µM): 0.378
relative viability ([2]; first compound 0.01 µM): 0.832
relative viability ([2]; first compound 0.03162 µM): 0.761
relative viability ([2]; first compound 0.1 µM): 0.574
relative viability ([2]; first compound 0.3162 µM): 0.317
relative viability ([2]; first compound 1 µM): 0.44
relative viability ([3]; 0.01 µM): 0.926
relative viability ([3]; 0.03162 µM): 1.01
relative viability ([3]; 0.1 µM): 0.903
relative viability ([3]; 0.3162 µM): 0.868
relative viability ([3]; 1 µM): 0.507
relative viability ([4]; 0.01 µM): 0.925
relative viability ([4]; 0.03162 µM): 0.913
relative viability ([4]; 0.1 µM): 0.83
relative viability ([4]; 0.3162 µM): 0.56
relative viability ([4]; 1 µM): 0.515

NCI-H2087
relative viability ([1]; first compound 0.01 µM): 0.641
relative viability ([1]; first compound 0.03162 µM): 0.723
relative viability ([1]; first compound 0.1 µM): 0.703
relative viability ([1]; first compound 0.3162 µM): 0.582
relative viability ([1]; first compound 1 µM): 0.374
relative viability ([2]; first compound 0.03162 µM): 0.515
relative viability ([2]; first compound 0.1 µM): 0.379
relative viability ([2]; first compound 0.3162 µM): 0.123
relative viability ([2]; first compound 1 µM): 0.126
relative viability ([3]; 0.01 µM): 0.967
relative viability ([3]; 0.03162 µM): 1.11
relative viability ([3]; 0.1 µM): 0.978
relative viability ([3]; 0.3162 µM): 0.78
relative viability ([3]; 1 µM): 0.259
relative viability ([4]; 0.01 µM): 0.822
relative viability ([4]; 0.03162 µM): 1.06
relative viability ([4]; 0.1 µM): 0.851
relative viability ([4]; 0.3162 µM): 0.257
relative viability ([4]; 1 µM): 0.235

NCI-H2126
relative viability ([1]; first compound 0.01 µM): 0.633
relative viability ([1]; first compound 0.03162 µM): 0.878
relative viability ([1]; first compound 0.1 µM): 0.591
relative viability ([1]; first compound 0.3162 µM): 0.677
relative viability ([1]; first compound 1 µM): 0.461
relative viability ([2]; first compound 0.01 µM): 0.644
relative viability ([2]; first compound 0.03162 µM): 0.774
relative viability ([2]; first compound 0.1 µM): 0.738
relative viability ([2]; first compound 0.3162 µM): 0.522
relative viability ([2]; first compound 1 µM): 0.585
relative viability ([3]; 0.01 µM): 0.977
relative viability ([3]; 0.03162 µM): 1.05
relative viability ([3]; 0.1 µM): 0.63
relative viability ([3]; 0.3162 µM): 0.859
relative viability ([3]; 1 µM): 0.441
relative viability ([4]; 0.01 µM): 0.961
relative viability ([4]; 0.03162 µM): 1
relative viability ([4]; 0.1 µM): 1.03
relative viability ([4]; 0.3162 µM): 0.758
relative viability ([4]; 1 µM): 0.714

NCI-H2170
relative viability ([1]; first compound 0.01 µM): 0.285
relative viability ([1]; first compound 0.03162 µM): 0.26
relative viability ([1]; first compound 0.3162 µM): 0.261
relative viability ([1]; first compound 1 µM): 0.252
relative viability ([2]; first compound 0.01 µM): 0.598
relative viability ([2]; first compound 0.03162 µM): 0.764
relative viability ([2]; first compound 0.1 µM): 0.767
relative viability ([2]; first compound 0.3162 µM): 0.52
relative viability ([2]; first compound 1 µM): 0.395
relative viability ([3]; 0.01 µM): 0.938
relative viability ([3]; 0.03162 µM): 0.985
relative viability ([3]; 0.3162 µM): 0.986
relative viability ([3]; 1 µM): 0.834
relative viability ([4]; 0.01 µM): 0.939
relative viability ([4]; 0.03162 µM): 0.934
relative viability ([4]; 0.1 µM): 0.86
relative viability ([4]; 0.3162 µM): 0.703
relative viability ([4]; 1 µM): 0.66

NCI-H2228
relative viability ([1]; first compound 0.01 µM): 0.375
relative viability ([1]; first compound 0.03162 µM): 0.358
relative viability ([1]; first compound 0.1 µM): 0.355
relative viability ([1]; first compound 0.3162 µM): 0.299
relative viability ([1]; first compound 1 µM): 0.181
relative viability ([2]; first compound 0.01 µM): 0.473
relative viability ([2]; first compound 0.03162 µM): 0.467
relative viability ([2]; first compound 0.1 µM): 0.534
relative viability ([2]; first compound 0.3162 µM): 0.264
relative viability ([2]; first compound 1 µM): 0.164
relative viability ([3]; 0.01 µM): 0.926
relative viability ([3]; 0.03162 µM): 1.1
relative viability ([3]; 0.1 µM): 0.7
relative viability ([3]; 0.3162 µM): 0.582
relative viability ([3]; 1 µM): 0.195
relative viability ([4]; 0.01 µM): 0.902
relative viability ([4]; 0.03162 µM): 1.01
relative viability ([4]; 0.1 µM): 0.899
relative viability ([4]; 0.3162 µM): 0.559
relative viability ([4]; 1 µM): 0.311

NCI-H2342
relative viability ([1]; first compound 0.01 µM): 0.861
relative viability ([1]; first compound 0.03162 µM): 0.866
relative viability ([1]; first compound 0.1 µM): 0.472
relative viability ([1]; first compound 0.3162 µM): 0.421
relative viability ([1]; first compound 1 µM): 0.291
relative viability ([2]; first compound 0.01 µM): 0.676
relative viability ([2]; first compound 0.03162 µM): 0.634
relative viability ([2]; first compound 0.1 µM): 0.598
relative viability ([2]; first compound 0.3162 µM): 0.507
relative viability ([2]; first compound 1 µM): 0.511
relative viability ([3]; 0.01 µM): 1.04
relative viability ([3]; 0.03162 µM): 1.03
relative viability ([3]; 0.1 µM): 0.533
relative viability ([3]; 0.3162 µM): 0.38
relative viability ([3]; 1 µM): 0.34
relative viability ([4]; 0.01 µM): 1.02
relative viability ([4]; 0.03162 µM): 0.999
relative viability ([4]; 0.1 µM): 0.968
relative viability ([4]; 0.3162 µM): 0.759
relative viability ([4]; 1 µM): 0.653
